From US20230022779A1, “DETECTION OF VIABLE MICROORGANISMS IN URINE” (Children's National Medical Center, priority 2021, published 2023) come the findings set out here.

Values joined by “and” are separate entries in the source; they are usually repeats but may differ in a detail not shown here. Equal entries are not always repeated.

Experiment [1] has as its system Klebsiella pneumoniae (ATCC 13883), phoE gene. Briefly: PMA-qPCR of bacteria grown with ciprofloxacin. The format is cell-based. The conditions noted are these: 1000 μg/mL ciprofloxacin, 3 and 24-hour treatments. From the text: The samples underwent PMA treatment, followed by DNA extraction, as described in Example 2. A primer set specific for K. pneumoniae that targets the gene phoE, derived from Shannon et al (doi:10.1016/j.scitotenv. 2007.02.039) was used in conjunction with the samples in a qPCR reaction.
For orientation: Quantitative PCR measures a nucleic acid by following its amplification.

The test system of a further experiment is E. coli (UTI89). Briefly: Mouse UTI model, ciprofloxacin treatment, urine culture and PMA-PCR. The conditions noted are these: 10 mg/kg i.p. twice a day for 3 days from day 5 post-inoculation; urine one day after completion.

For the molecule `O=C(O)c1cn(C2CC2)c2cc(N3CCNCC3)c(F)cc2c1=O` [ciprofloxacin, Ciprofloxacin], in experiment [1], the “CT value of PMA-treated sample compared to non-PMA-treated equivalent” value is reported as “greater CT”. The “groups of mice with no growth on non-selective LB agar” value in the experiment on E. coli (UTI89) was 3 of 5 and 3 out of the 5.
